Counter-ions that a name gives are not always drawn.
Target: T1, brain acetylcholinesterase (AChE) (Rattus norvegicus, UniProt P37136)
T1 construct: corpora striata dissected free, weighed and homogenized in 19 volumes; from tissue; host or cells: corpora striata of male Wistar rats, whole homogenate
T1 sequence (P37136 32-614): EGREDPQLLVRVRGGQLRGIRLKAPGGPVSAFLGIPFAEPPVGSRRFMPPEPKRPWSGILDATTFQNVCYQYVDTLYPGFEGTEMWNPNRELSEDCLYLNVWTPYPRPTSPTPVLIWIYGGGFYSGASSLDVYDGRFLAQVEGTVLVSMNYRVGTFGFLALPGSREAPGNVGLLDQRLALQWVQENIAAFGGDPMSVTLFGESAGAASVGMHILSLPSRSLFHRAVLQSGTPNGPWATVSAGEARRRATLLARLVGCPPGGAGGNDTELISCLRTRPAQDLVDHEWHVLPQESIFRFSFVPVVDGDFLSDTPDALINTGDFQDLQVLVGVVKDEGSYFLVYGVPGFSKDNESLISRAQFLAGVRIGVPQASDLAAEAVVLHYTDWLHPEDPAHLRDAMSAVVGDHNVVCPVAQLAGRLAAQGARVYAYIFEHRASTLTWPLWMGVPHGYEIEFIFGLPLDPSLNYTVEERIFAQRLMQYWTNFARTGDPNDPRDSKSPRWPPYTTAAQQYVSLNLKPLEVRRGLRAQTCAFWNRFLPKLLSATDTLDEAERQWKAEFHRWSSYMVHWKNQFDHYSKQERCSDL
Assay: In Vitro Inhibition of Acetylcholinesterase Activity in Rat Striatum
Format: biochemical, rat (male Wistar)
Description: Cholinesterases are found throughout the body, both in the brain and in serum. However, only brain acetylcholinesterase (AChE) distribution is correlated with central cholinergic innervation. […] We have determined in vitro inhibition of acetylcholinesterase activity in rat striatum according to the method described below.
The method described below was used in this invention for assaying anticholinesterase activity.
1. 0.05M Phosphate buffer, pH 7.2
(c) add (a) to (b) until pH reaches 7.2
(a) 9.9 mg 5,5-dithiobisnitrobenzoic acid (DTNB) (0.25 mM)
(b) 99 mg s-acetylthiocholine chloride (5 mM)
(c) q.s. to 100 ml with 0.05M phosphate buffer, pH 7.2 (reagent 1)
Male Wistar rats are decapitated, brains rapidly removed, corpora striata dissected free, weighed and homogenized in 19 volumes (approximately 7 mg protein/ml) of 0.05M phosphate buffer, pH 7.2 using a Potter-Elvehjem homogenizer. […]
Using the indicated instrument settings the ABA-100 automatically reads the color reaction and prints out the results in enzyme units after 15 minutes.
2. The enzyme activity can also be measured with a Gilford 250 spectrophotometer. […]
The uninhibited activity of the enzyme (tissue homogenate) is first determined. […] The reaction rate is determined by the slope of the recorded absorbance change. The actual rate (moles/liter/min) can be calculated as described in the following formula

Row | Structure (SMILES) | IC50 [µM]
1 | CN1CCC2CC1N(C)c1ccc(OC(=O)NC3CCCCC3)cc12 (centres unmarked) [1,2,3,4,5,6-Hexahydro-1,3-dimethyl-2,6-methano-1,3-benzodiazocin-8-ol, cyclohexyl carbamate] | 10.7
2 | CNC(=O)Oc1ccc2c(c1)C1CCN(C)C(C1)N2C (centres unmarked) [1,2,3,4,5,6-Hexahydro-1,3-dimethyl-2,6-methano-1,3-benzodiazocin-8-ol, methyl carbamate fumarate] | 0.058
